Laboratory results from patent publication US9409952B2, “Peptide-compound cyclization method” (Chugai Seiyaku Kabushiki Kaisha, priority 2011, dated 2016).
Where two headings read alike, the source gives them in different places. Starred links: 1 amine or outer side, 2 acyl side, 3 side chain; linkers in the order of their positions; H or OH if unused. Positions of bridges follow the written chain, without caps; N, C: chain ends. Non-standard residues stand in square brackets, D forms with d. Residues, ends and D or L forms follow the SMILES beside them. *: point of attachment. Phe(4-CF3) = N[C@@H](Cc1ccc(C(F)(F)F)cc1)C(=O)O; NMePhe(3-Cl) = CN[C@@H](Cc1cccc(Cl)c1)C(=O)O; Ala(4-thiazolyl) = N[C@@H](Cc1cscn1)C(=O)O; NMeF = CN[C@@H](Cc1ccccc1)C(=O)O; NMeI = CC[C@H](C)[C@H](NC)C(=O)O; NMeβAla = CN(CCC(=O)[*:2])[*:1]; NMeL = CN[C@@H](CC(C)C)C(=O)O; NMeV = CN[C@H](C(=O)O)C(C)C; NMeA = CN[C@@H](C)C(=O)O; Piperidide = C1CCN(*)CC1; dNMeA = CN[C@H](C)C(=O)O; β3hA = C[C@H](N)CC(=O)O; Sar = CNCC(=O)O; tBu = CC(C)(C)*

How the values were obtained:
[1] = PAMPA (parallel artificial membrane permeability assay); format: in vitro ADME; settings: PAMPA
In short: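 Artificial membrane was 10% (w/v) egg lecithin plus 0.5% (w/v) cholesterol in dodecane on a PVDF filter. A 10 mM DMSO stock was added at 0.5% (v/v) to donor buffer (50 mM MOPSO, pH 6.5, 5.0% glycocholic acid). After 18 h at 37 °C, LC/MS or LC/UV gave donor and acceptor levels for Pe.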

[2] = Metabolic stability in human hepatic microsome; format: in vitro ADME; settings: microsomes
[3] = membrane permeation rate (Pe), 50 mM MOPSO buffer pH 6.5 with 5.0% glycocholic acid, 37° C., 18 hours, read-out: iPAMPA Pe
[4] = pH 7.4, human hepatic microsome, NADPH(+), read-out: CL NADPH(+)

Compound | Papp at 18 hours, 50 µM [1, 3] [×10⁻⁶ cm/s] | microsomal CLint at 1 uM [2, 4] [µL/min/mg] | Papp at 18 hours, 50 µM ([1]; pH 6.5) [×10⁻⁶ cm/s] | microsomal CLint at 1 uM ([2]; human, pH 7.4, CL NADPH(+)) [µL/min/mg]
CC[C@H](C)[C@@H]1NC(=O)[C@H](C(C)C)N(C)C(=O)[C@H](CC(C)C)N(C)C(=O)[C@H](Cc2ccccc2)NC(=O)[C@@H](C)N(C)C(=O)C[C@@H](C(=O)N(C)[C@@H](Cc2ccccc2)C(=O)N(C)[C@@H](Cc2ccccc2)C(=O)N[C@@H](C)C(=O)N2CCCCC2)NC(=O)[C@H](C)N(C)C(=O)[C@H]([C@@H](C)O)NC(=O)[C@H](CC(C)C)N(C)C(=O)CN(C)C1=O [DP-454] ([dNMeA]F[NMeL][NMeV]I[Sar][NMeL]T[NMeA]D[NMeF][NMeF]A-Piperidide; lactam N-10) | 14 | 50 |  | 
C=C1CCC(=O)NCC(=O)N(C)[C@@H](C)C(=O)N[C@@H](CC(C)C)C(=O)N[C@@H](C(C)C)C(=O)N(C)[C@@H](CC(C)C)C(=O)N[C@@H](Cc2ccccc2)C(=O)N(C)[C@@H](Cc2ccccc2)C(=O)N[C@@H]([C@@H](C)CC)C(=O)N(C)[C@@H](C)C(=O)N[C@@H](CC(C)C)C(=O)N[C@@H]([C@@H](C)O)C(=O)N[C@H](C(=O)N2CCCCC2)Cc2cccc1c2 [DP-889] | 3.6 | 89 |  | 
CC(C)C[C@H]1C(=O)N[C@H](C(=O)N2CCCCC2)CC(=O)N(C)CC(=O)N[C@@H]([C@@H](C)O)C(=O)N(C)[C@@H](C)C(=O)N[C@@H](COC(C)(C)C)C(=O)N(C)[C@@H](Cc2ccccc2)C(=O)N1C [DP-531] ([Sar]T[NMeA]S(tBu)[NMeF][NMeL]D-Piperidide; lactam N-7) | 5.8 | 42 |  | 
C=C1CCC(=O)N[C@@H](CC(C)C)C(=O)N(C)[C@@H]([C@@H](C)CC)C(=O)N(C)[C@@H](CC(C)C)C(=O)NCC(=O)N(C)[C@@H](C)C(=O)N[C@@H](Cc2ccccc2)C(=O)N[C@@H]([C@@H](C)O)C(=O)N(C)[C@@H](CC(C)C)C(=O)N[C@@H](Cc2ccccc2)C(=O)N(C)[C@@H](C(C)C)C(=O)N[C@H](C(=O)N2CCCCC2)Cc2cccc1c2 [DP-882] | 1.8 | 32 |  | 
CC(C)C[C@H]1C(=O)N(C)[C@@H](CC(C)C)C(=O)N(C)CC(=O)N(C)[C@@H](Cc2ccccc2)C(=O)N[C@@H](C)C(=O)N(C)[C@@H](Cc2ccccc2)C(=O)N(C)[C@@H](CC(C)C)C(=O)N[C@@H]([C@@H](C)O)C(=O)N[C@H](C(=O)N2CCCCC2)CC(=O)N[C@H](C(C)C)C(=O)N(C)[C@@H](C)C(=O)N1C [DP-151] ([dV][NMeA][NMeL][NMeL][Sar][NMeF]A[NMeF][NMeL]TD-Piperidide; lactam N-11) | 27 | 30 |  | 
CC(C)C[C@H]1C(=O)N[C@@H]([C@@H](C)O)C(=O)N(C)[C@@H](C)C(=O)N[C@H](C(=O)N(C)[C@@H](Cc2ccccc2)C(=O)N[C@@H](C)C(=O)N2CCCCC2)CC(=O)N(C)CCC(=O)N(C)[C@@H](C(C)C)C(=O)N(C)[C@@H](Cc2ccccc2)C(=O)N(C)[C@@H](Cc2ccccc2)C(=O)N[C@@H](C)C(=O)N(C)[C@@H](C)C(=O)N1C [DP-370] ([NMeβAla][NMeV][NMeF][NMeF]A[NMeA][NMeL]T[NMeA]D[NMeF]A-Piperidide; lactam N-10) | 25 | 36 |  | 
CC[C@H](C)[C@@H]1NC(=O)[C@H](CC(C)C)N(C)C(=O)[C@@H](C(C)C)NC(=O)C[C@H](C)NC(=O)[C@H](CC(C)C)N(C)C(=O)[C@H](C)N(C)C(=O)[C@H]([C@@H](C)O)NC(=O)[C@H](Cc2cccc(Cl)c2)N(C)C(=O)[C@H](C)N(C)C1=O [DP-828] (cyclo(I[NMeA][NMePhe(3-Cl)]T[NMeA][NMeL][β3hA][dV][NMeL])) | 42 | 154 |  | 
CC[C@H](C)[C@H]1C(=O)NCC(=O)N(C)[C@@H](Cc2ccccc2)C(=O)N[C@@H]([C@@H](C)O)C(=O)N(C)[C@@H](C)C(=O)N[C@@H](CC(C)C)C(=O)N[C@H](C(=O)N2CCCCC2)CC(=O)N(C)[C@H](C)C(=O)N(C)[C@@H](C)C(=O)N[C@@H](Cc2ccccc2)C(=O)N(C)[C@@H](CC(C)C)C(=O)N[C@@H](C(C)C)C(=O)N1C [DP-93] ([dNMeA][NMeA]F[NMeL]V[NMeI]G[NMeF]T[NMeA]LD-Piperidide; lactam N-12) |  |  | 22 | 17
CC(C)C[C@@H]1NC(=O)[C@H](CC(C)C)N(C)C(=O)[C@H](C)N(C)C(=O)[C@@H](C(C)C)NC(=O)C[C@@H](C(=O)N2CCCCC2)NC(=O)[C@H]([C@@H](C)O)NC(=O)[C@H](Cc2ccccc2)N(C)C(=O)[C@H](C)N(C)C(=O)[C@H](CC(C)C)N(C)C(=O)[C@H](Cc2cscn2)NC(=O)[C@H](Cc2ccccc2)N(C)C1=O [DP-625] ([dV][NMeA][NMeL]L[NMeF][Ala(4-thiazolyl)][NMeL][NMeA][NMeF]TD-Piperidide; lactam N-11) | 26 | 27 |  | 
CC[C@H](C)[C@H]1C(=O)N[C@H](C(=O)N2CCCCC2)CC(=O)N(C)[C@H](C)C(=O)N[C@@H](Cc2ccccc2)C(=O)N(C)[C@@H](C)C(=O)N(C)[C@@H](CC(C)C)C(=O)N[C@@H]([C@@H](C)O)C(=O)N(C)CC(=O)N(C)[C@@H](C(C)C)C(=O)N[C@@H](C)C(=O)N1C [DP-142] ([dNMeA]F[NMeA][NMeL]T[Sar][NMeV]A[NMeI]D-Piperidide; lactam N-10) |  |  | 4 | 22
CC(C)C[C@@H]1NC(=O)[C@H](C)NC(=O)C[C@H](C)NC(=O)[C@H](C(C)C)N(C)C(=O)[C@H](CC(C)C)N(C)C(=O)[C@H]([C@@H](C)O)NC(=O)[C@H](Cc2ccc(C(F)(F)F)cc2)NC(=O)[C@H](C)N(C)C(=O)CNC(=O)[C@H](CC(C)C)N(C)C(=O)[C@H](C)N(C)C1=O [DP-829] (cyclo(AL[NMeA][NMeL]G[NMeA][Phe(4-CF3)]T[NMeL][NMeV][β3hA])) | 21 | 65 |  | 
CC(C)C[C@H]1C(=O)N(C)[C@@H](Cc2ccccc2)C(=O)NCC(=O)N(C)[C@@H](Cc2ccccc2)C(=O)N(C)[C@@H](C)C(=O)N[C@@H]([C@@H](C)O)C(=O)N[C@H](C(=O)N(C)[C@@H](Cc2ccccc2)C(=O)N(C)[C@@H](Cc2ccccc2)C(=O)N[C@@H](C)C(=O)N2CCCCC2)CC(=O)N(C)[C@H](C)C(=O)N[C@@H](C(C)C)C(=O)N1C [DP-213] ([dNMeA]V[NMeL][NMeF]G[NMeF][NMeA]TD[NMeF][NMeF]A-Piperidide; lactam N-9) | 55 | 71 |  | 
CC[C@H](C)[C@@H]1NC(=O)[C@H](CC(C)C)N(C)C(=O)[C@H](CC(C)C)N(C)C(=O)CN(C)C(=O)[C@H]([C@@H](C)O)NC(=O)[C@H](CC(C)C)N(C)C(=O)[C@H](CC(C)C)NC(=O)CCN(C)C(=O)C[C@@H](C(=O)N2CCCCC2)NC(=O)[C@H](C)NC(=O)[C@H](Cc2ccccc2)N(C)C(=O)[C@H](Cc2ccccc2)NC(=O)[C@H](CC(C)C)N(C)C1=O [DP-957] ([NMeβAla]L[NMeL]T[Sar][NMeL][NMeL]I[NMeL]F[NMeF]AD-Piperidide; lactam N-13) | 4 | 54 |  | 
C=C1CCC(=O)NCC(=O)N(C)[C@@H](C)C(=O)N[C@@H](CC(C)C)C(=O)N[C@@H](C(C)C)C(=O)N(C)[C@@H](CC(C)C)C(=O)N[C@@H](Cc2ccccc2)C(=O)N(C)[C@@H](Cc2ccccc2)C(=O)N[C@@H]([C@@H](C)CC)C(=O)N(C)[C@@H](C)C(=O)N[C@@H](CC(C)C)C(=O)N[C@@H]([C@@H](C)O)C(=O)N[C@H](C(=O)N2CCCCC2)Cc2ccc1cc2 [DP-887] | 3.9 | 103 |  | 
